Laboratory results as given in patent US20230212116A1, “SARS-COV-2 MAIN PROTEASE INHIBITORS” (TEXAS A&M UNIVERSITY SYSTEM, priority 2020, published 2023).
Like-named read-outs stand apart in the source and are kept apart here.

Columns and labels:
[1] = test system: SARS-CoV-2; format: cell-based
[2] = test system: SARS-CoV-2; test: microbe, parasite or virus in culture; format: cell-based
[3] = test system: SARS-CoV-2; format: cell-based; conditions: A549/ACE2 cells; tested 80 nM to 10 μM
[4] = biological target: T1, SARS-CoV-2 M^Pro (Severe acute respiratory syndrome coronavirus 2, UniProt P0DTD1); format: cell-based
[5] = biological target: T1, SARS-CoV-2 M^Pro; test: biochemical; format: biochemical
[6] = Vero E6 cells, tested 80 nM to 10 μM, two repeats
[7] = Severe acute respiratory syndrome coronavirus 2, Vero C1008, Vero E6 cells, plaque reduction, read-out: antiviral EC50

CC(C)C[C@H](NC(=O)OCc1ccccc1)C(=O)N[C@@H](CC1CCNC1=O)C(O)S(=O)(=O)O (stereo partly drawn) [GC376, (2S)-2-((S)-2-(((benzyloxy)carbonyl)amino)-4-methylpentanamido)-1-hydroxy-3-(2-oxopyrrolidin-3-yl)propane-1-sulfonic acid, reference compound]
concentration of complete abolition of SARS-CoV-2-induced CPE [1, 6]: 10 µM

CC(C)C[C@H](NC(=O)[C@@H](NC(=O)OCc1ccccc1)C(C)C)C(=O)N[C@H](C=O)C[C@@H]1CCNC1=O [MPI3, benzyl ((S)-3-methyl-1-(((S)-4-methyl-1-oxo-1-(((S)-1-oxo-3-((S)-2-oxopyrrolidin-3-yl)propan-2-yl)amino)pentan-2-yl)amino)-1-oxobutan-2-yl)carbamate]
concentration of complete abolition of SARS-CoV-2-induced CPE [1]: not able to completely prevent CPE at all tested concentrations

CC(C)[C@H](NC(=O)OCc1ccccc1)C(=O)N[C@@H](CC1CCCCC1)C(=O)N[C@H](C=O)C[C@@H]1CCNC1=O [MPI5, benzyl ((S)-1-(((S)-3-cyclohexyl-1-oxo-1-(((S)-1-oxo-3-((S)-2-oxopyrrolidin-3-yl)propan-2-yl)amino)propan-2-yl)amino)-3-methyl-1-oxobutan-2-yl)carbamate]
EC50 [2, 7]: 0.073 µM | concentration of complete abolition of SARS-CoV-2-induced CPE [1, 6]: 5 µM

CC(C)C[C@H](NC(=O)[C@@H](NC(=O)OCc1ccccc1)[C@@H](C)OC(C)(C)C)C(=O)N[C@H](C=O)C[C@@H]1CCNC1=O [MPI6, benzyl ((2S,3R)-3-(tert-butoxy)-1-(((S)-4-methyl-1-oxo-1-(((S)-1-oxo-3-((S)-2-oxopyrrolidin-3-yl)propan-2-yl)amino)pentan-2-yl)amino)-1-oxobutan-2-yl)carbamate]
EC50 ([2]; Severe acute respiratory syndrome coronavirus 2, Vero C1008, read-out: antiviral EC50, Vero E6 cells, plaque reduction): 0.209 µM

C[C@@H](OC(C)(C)C)[C@H](NC(=O)OCc1ccccc1)C(=O)N[C@@H](Cc1ccccc1)C(=O)N[C@H](C=O)C[C@@H]1CCNC1=O [MPI7, benzyl ((2S,3R)-3-(tert-butoxy)-1-oxo-1-(((S)-1-oxo-1-(((S)-1-oxo-3-((S)-2-oxopyrrolidin-3-yl)propan-2-yl)amino)-3-phenylpropan-2-yl)amino)butan-2-yl)carbamate]
EC50 [2, 7]: 0.17 µM | concentration of complete abolition of SARS-CoV-2-induced CPE [3]: not able to completely abolish CPE at all tested conditions | concentration of complete abolition of SARS-CoV-2-induced CPE [1, 6]: 2.5 to 5 µM

C[C@@H](OC(C)(C)C)[C@H](NC(=O)OCc1ccccc1)C(=O)N[C@@H](CC1CCCCC1)C(=O)N[C@H](C=O)C[C@@H]1CCNC1=O [MPI8, benzyl ((2S,3R)-3-(tert-butoxy)-1-(((S)-3-cyclohexyl-1-oxo-1-(((S)-1-oxo-3-((S)-2-oxopyrrolidin-3-yl)propan-2-yl)amino)propan-2-yl)amino)-1-oxobutan-2-yl)carbamate]
suppression of M^Pro-eGFP toxicity / promotion of cell survival and M^Pro-eGFP expression [4]: effectively suppressed

O=C[C@H](C[C@@H]1CCNC1=O)NC(=O)[C@H](CC1CCCCC1)NC(=O)c1cc2ccccc2[nH]1 [MPI10, N-((S)-3-cyclohexyl-1-oxo-1-(((S)-1-oxo-3-((S)-2-oxopyrrolidin-3-yl)propan-2-yl)amino)propan-2-yl)-1H-indole-2-carboxamide, reference compound]
concentration of complete abolition of SARS-CoV-2-induced CPE [3]: potency similar to that shown in Vero E6 cells | concentration of complete abolition of SARS-CoV-2-induced CPE [1, 6]: 10 µM

CC(C)C[C@H](NC(=O)[C@@H](NC(=O)OCc1ccccc1)C(C)C)C(=O)N[C@@H](C[C@@H]1CCNC1=O)C(O)C#N (stereo partly drawn) [MPI66, benzyl ((2S)-1-(((2S)-1-(((2S)-1-cyano-1-hydroxy-3-((S)-2-oxopyrrolidin-3-yl)propan-2-yl)amino)-4-methyl-1-oxopentan-2-yl)amino)-3-methyl-1-oxobutan-2-yl)carbamate]
IC50 ([5]; read-out: Enzymatic IC50): 0.0188 ± 0.0008 µM

C[C@@H](OC(C)(C)C)[C@H](NC(=O)NC(C)(C)C)C(=O)N1C[C@H]2[C@@H]([C@H]1C(=O)N[C@H](C=O)C[C@@H]1CCNC1=O)C2(C)C [MPI68, (1R,2S,5S)-3-(O-(tert-butyl)-N-(tert-butylcarbamoyl)-L-threonyl)-6,6-dimethyl-N-((S)-1-oxo-3-((S)-2-oxopyrrolidin-3-yl)propan-2-yl)-3-azabicyclo[3.1.0]hexane-2-carboxamide]
IC50 ([5]; read-out: Enzymatic IC50): 0.097 µM

C=CC(=O)N(C[C@@H]1CCC(=O)N1)NC(=O)[C@@H]1[C@@H]2[C@H](CN1C(=O)[C@@H](NC(=O)NC(C)(C)C)[C@@H](C)OC(C)(C)C)C2(C)C [MPI69, 1-((2S,3R)-1-((1R,2S,5S)-2-(2-acryloyl-2-(((S)-5-oxopyrrolidin-2-yl)methyl)hydrazine-1-carbonyl)-6,6-dimethyl-3-azabicyclo[3.1.0]hexan-3-yl)-3-(tert-butoxy)-1-oxobutan-2-yl)-3-(tert-butyl)urea]
IC50 ([5]; read-out: Enzymatic IC50): > 2 µM

C=CC(=O)N(CCC(N)=O)NC(=O)[C@@H]1[C@@H]2[C@H](CN1C(=O)[C@@H](NC(=O)NC(C)(C)C)[C@@H](C)OC(C)(C)C)C2(C)C [MPI70, 3-(1-acryloyl-2-((1R,2S,5S)-3-(O-(tert-butyl)-N-(tert-butylcarbamoyl)-L-threonyl)-6,6-dimethyl-3-azabicyclo[3.1.0]hexane-2-carbonyl)hydrazineyl)propanamide]
IC50 ([5]; read-out: Enzymatic IC50): 0.136 ± 0.017 µM

C[C@@H](OC(C)(C)C)[C@H](NC(=O)OCc1ccccc1)C(=O)N[C@@H](CC1CCCCC1)C(=O)N[C@@H](C[C@@H]1CCNC1=O)C(=O)C(N)=O [MPI86, benzyl ((2S,3R)-1-(((S)-1-(((S)-4-amino-3,4-dioxo-1-((S)-2-oxopyrrolidin-3-yl)butan-2-yl)amino)-3-cyclohexyl-1-oxopropan-2-yl)amino)-3-(tert-butoxy)-1-oxobutan-2-yl)carbamate]
IC50 ([5]; read-out: Enzymatic IC50): 0.167 ± 0.014 µM

CC1(C)[C@@H]2[C@@H](C(=O)N[C@H](C=O)C[C@@H]3CCNC3=O)N(C(=O)[C@H](Cc3ccccc3)NC(=O)OCc3ccccc3)C[C@@H]21 [MPI94, benzyl ((S)-1-((1R,2S,5S)-6,6-dimethyl-2-(((S)-1-oxo-3-((S)-2-oxopyrrolidin-3-yl)propan-2-yl)carbamoyl)-3-azabicyclo[3.1.0]hexan-3-yl)-1-oxo-3-phenylpropan-2-yl)carbamate]
IC50 [5]: 0.267 ± 0.044 µM

C[C@@H](OC(C)(C)C)[C@H](NC(=O)OCc1cccc(F)c1)C(=O)N[C@@H](CC1CCCCC1)C(=O)N[C@H](C=O)C[C@@H]1CCNC1=O [MPI102, 3-fluorobenzyl ((2S,3R)-3-(tert-butoxy)-1-(((S)-3-cyclohexyl-1-oxo-1-(((S)-1-oxo-3-((S)-2-oxopyrrolidin-3-yl)propan-2-yl)amino)propan-2-yl)amino)-1-oxobutan-2-yl)carbamate]
IC50 ([5]; read-out: Enzymatic IC50): 0.307 µM

C[C@@H](OC(C)(C)C)[C@H](NC(=O)OCc1ccc(F)cc1)C(=O)N[C@@H](CC1CCCCC1)C(=O)N[C@H](C=O)C[C@@H]1CCNC1=O [MPI103, 4-fluorobenzyl ((2S,3R)-3-(tert-butoxy)-1-(((S)-3-cyclohexyl-1-oxo-1-(((S)-1-oxo-3-((S)-2-oxopyrrolidin-3-yl)propan-2-yl)amino)propan-2-yl)amino)-1-oxobutan-2-yl)carbamate]
IC50 ([5]; read-out: Enzymatic IC50): 0.196 ± 0.031 µM
